Test results as given in patent US10654917B2, “Antibody molecules and peptide delivery systems for use in alzheimer's disease and related disorders” (TECHNOPHAGE, INVESTIGAÇĀO E DESENVOLVIMENTO EM …, priority 2015, dated 2020).
Like-named read-outs stand apart in the source and are kept apart here. Residues, ends and D or L forms follow the SMILES beside them. *: point of attachment. X1 = Cc1nn(CCN(CCN)CCCC(=O)*)c(C)c1CC(=O)O

Tests used:
[1] = Partition coefficient (log Po/w) of radiopeptides; assay type: physicochemical
From the text: Table 7 lists each peptide's name, isoelectric point (PI), charge (number of positive residues), calculated mass (in Da), and ion found; as well as the name, calculated mass, and found ion for the corresponding conjugate; and also retention times in HPLC and the partition coefficient (log Po/w). These values allowed the determination of the hydrophilic nature of peptides, where pepH1 and pepH4 were identified as the most hydrophilic peptides.

[2] = Biodistribution of technetium-labelled peptides; assay type: in vivo, CD1 mice
Method: To evaluate the capacity to cross the BBB in vivo, the selected peptides, pepH1 and pepH3, were analyzed for biodistribution in CD1 mice. The peptides were labelled with technetium at a final concentration of 8.5×10^−5 M and diluted in PBS. CD1 mice were injected (iv injection, tail vein). The mice were sacrificed by cervical dislocation after 5 and 60 minutes of incubation. The tissues of interest were dissected and washed to remove excess blood, weighed, and measured for radioactivity. Technetium radioactivity of the different peptides was measured for different organs.
Initial results are presented in Table 11, where “% I.A. refers to the “% injected activity”, that is, the amount of radioactivity measured in a given organ compared to the total originally injected.
The biodistribution studies were repeated, using higher doses of each peptide, specifically, a one hundred fold increase, as well as using PepH2 as a negative control, and allowing incubation for 2 minutes and 60 minutes. Tissue biodistribution profile in percentage of injected radiopeptide activity per gram of tissue/organ was measured and results are presented in Table 12.

**Q.** With `Cc1nn(CCN(CCN)CCCC(=O)N[C@H](C(=O)N[C@@H](CCC(N)=O)C(=O)N[C@@H](CCC(N)=O)C(=O)N[C@@H](CC(C)C)C(=O)N[C@H](C(=O)N[C@@H](CCCCN)C(=O)N[C@@H](CCCNC(=N)N)C(=O)N[C@@H](Cc2ccccc2)C(=O)N[C@@H](CO)C(=O)N[C@@H](CC(C)C)C(=O)O)[C@@H](C)O)C(C)C)c(C)c1CC(=O)O` [^99mTc(CO)3-Pz^1-pepH1, metal not drawn] (X1-VQQLTKRFSL-OH; C-terminus assumed) as the molecule, how does the “log Po/w of radiopeptides” value [1] read?
**A.** Its value is −1.76 ± 0.11.

**Q.** What about the “injected activity in Blood” value ([2]; 140 μg/mouse, 1 hour) of the same molecule?
**A.** The value was 1.0 ± 0.2 % I.A./g.

**Q.** What about the “injected activity in Bone” value ([2]; 140 μg/mouse, 1 hour) of the same molecule?
**A.** The value was 0.16 ± 0.01 % I.A./g.

**Q.** What about the “injected activity in Brain” value ([2]; 140 μg/mouse, 1 hour) of the same molecule?
**A.** Its value is 0.03 ± 0.00 % I.A./g.

**Q.** What about the “injected activity in Heart” value ([2]; 140 μg/mouse, 1 hour) of the same molecule?
**A.** The value was 0.39 ± 0.02 % I.A./g.

**Q.** And the “injected activity in Intestine” value ([2]; 140 μg/mouse, 1 hour)?
**A.** The value was 13.0 ± 2.0 % I.A./g.

**Q.** What about the “injected activity in Kidney” value ([2]; 140 μg/mouse, 1 hour) of the same molecule?
**A.** Its value is 1.6 ± 0.3 % I.A./g.

**Q.** What about the “injected activity in Liver” value ([2]; 140 μg/mouse, 1 hour) of the same molecule?
**A.** Its value is 2.4 ± 1.0 % I.A./g.

**Q.** And the “injected activity in Lung” value ([2]; 140 μg/mouse, 1 hour)?
**A.** Its value is 1.4 ± 0.3 % I.A./g.

**Q.** What about the “injected activity in Muscle” value ([2]; 140 μg/mouse, 1 hour) of the same molecule?
**A.** Its value is 0.2 ± 0.0 % I.A./g.

**Q.** What about the “injected activity in Spleen” value ([2]; 140 μg/mouse, 1 hour) of the same molecule?
**A.** Its value is 0.22 ± 0.01 % I.A./g.

**Q.** What about the “injected activity in Stomach” value ([2]; 140 μg/mouse, 1 hour) of the same molecule?
**A.** Its value is 0.31 ± 0.08 % I.A./g.

**Q.** And the tissue uptake at 2 min ([2]; CD1, blood, iv, 140 ug/mouse, total radioactivity, 140 μg/mouse, 2 min, read-out: injected activity in Blood)?
**A.** Its tissue uptake at 2 min is 3.1 ± 0.5 %ID/g.

**Q.** What about the tissue uptake at 2 min ([2]; CD1, bone, iv, 140 ug/mouse, total radioactivity, 140 μg/mouse, 2 min, read-out: injected activity in Bone) of the same molecule?
**A.** Its tissue uptake at 2 min is 0.6 ± 0.2 %ID/g.

**Q.** And the tissue uptake at 2 min ([2]; CD1, brain, iv, 140 ug/mouse, total radioactivity, 140 μg/mouse, 2 min, read-out: injected activity in Brain)?
**A.** The tissue uptake at 2 min was 0.11 ± 0.02 %ID/g.

**Q.** And the tissue uptake at 2 min ([2]; CD1, heart, iv, 140 ug/mouse, total radioactivity, 140 μg/mouse, 2 min, read-out: injected activity in Heart)?
**A.** The tissue uptake at 2 min was 1.1 ± 0.4 %ID/g.

**Q.** What about the dose excreted at 2 min ([2]; CD1, in vivo, iv, 140 ug/mouse, total radioactivity, 140 μg/mouse, 2 min, read-out: Excretion) of the same molecule?
**A.** The dose excreted at 2 min was 17.1 ± 7.9%.

**Q.** What about the dose excreted at 1 h ([2]; CD1, in vivo, iv, 140 ug/mouse, total radioactivity, 140 μg/mouse, 1 hour, read-out: Excretion) of the same molecule?
**A.** The dose excreted at 1 h was 32.7 ± 0.2%.

**Q.** And the tissue uptake at 2 min ([2]; CD1, intestine, iv, 140 ug/mouse, total radioactivity, 140 μg/mouse, 2 min, read-out: injected activity in Intestine)?
**A.** Its tissue uptake at 2 min is 3.8 ± 2.3 %ID/g.

**Q.** What about the tissue uptake at 2 min ([2]; CD1, kidney, iv, 140 ug/mouse, total radioactivity, 140 μg/mouse, 2 min, read-out: injected activity in Kidney) of the same molecule?
**A.** Its tissue uptake at 2 min is 14.6 ± 8.2 %ID/g.

**Q.** And the tissue uptake at 2 min ([2]; CD1, liver, iv, 140 ug/mouse, total radioactivity, 140 μg/mouse, 2 min, read-out: injected activity in Liver)?
**A.** Its tissue uptake at 2 min is 7 ± 1.1 %ID/g.

**Q.** What about the tissue uptake at 2 min ([2]; CD1, lung, iv, 140 ug/mouse, total radioactivity, 140 μg/mouse, 2 min, read-out: injected activity in Lung) of the same molecule?
**A.** Its tissue uptake at 2 min is 2.6 ± 0.5 %ID/g.

**Q.** And the tissue uptake at 2 min ([2]; CD1, muscle, iv, 140 ug/mouse, total radioactivity, 140 μg/mouse, 2 min, read-out: injected activity in Muscle)?
**A.** Its tissue uptake at 2 min is 0.6 ± 0.2 %ID/g.

**Q.** What about the tissue uptake at 2 min ([2]; CD1, spleen, iv, 140 ug/mouse, total radioactivity, 140 μg/mouse, 2 min, read-out: injected activity in Spleen) of the same molecule?
**A.** Its tissue uptake at 2 min is 0.7 ± 0.2 %ID/g.

**Q.** And the tissue uptake at 2 min ([2]; CD1, stomach, iv, 140 ug/mouse, total radioactivity, 140 μg/mouse, 2 min, read-out: injected activity in Stomach)?
**A.** Its tissue uptake at 2 min is 0.7 ± 0.4 %ID/g.

**Q.** And the tissue uptake at 5 min ([2]; mouse, blood, 10 ug, total radioactivity, CD1 mice, iv, 5 min, 10 μg, read-out: injected activity in Blood)?
**A.** The tissue uptake at 5 min was 3.1 ± 0.5 %ID/g.

**Q.** What about the tissue uptake at 1 h ([2]; mouse, blood, 10 ug, total radioactivity, CD1 mice, iv, 1 hour, 10 μg, read-out: injected activity in Blood) of the same molecule?
**A.** The tissue uptake at 1 h was 1 ± 0.2 %ID/g.

**Q.** And the tissue uptake at 5 min ([2]; mouse, bone, 10 ug, total radioactivity, CD1 mice, iv, 5 min, 10 μg, read-out: injected activity in Bone)?
**A.** The tissue uptake at 5 min was 0.6 ± 0.2 %ID/g.

**Q.** And the tissue uptake at 1 h ([2]; mouse, bone, 10 ug, total radioactivity, CD1 mice, iv, 1 hour, 10 μg, read-out: injected activity in Bone)?
**A.** Its tissue uptake at 1 h is 0.16 ± 0.01 %ID/g.

**Q.** And the tissue uptake at 5 min ([2]; mouse, brain, 10 ug, total radioactivity, CD1 mice, iv, 5 min, 10 μg, read-out: injected activity in Brain)?
**A.** The tissue uptake at 5 min was 0.11 ± 0.02 %ID/g.

**Q.** What about the tissue uptake at 1 h ([2]; mouse, brain, 10 ug, total radioactivity, CD1 mice, iv, 1 hour, 10 μg, read-out: injected activity in Brain) of the same molecule?
**A.** The tissue uptake at 1 h was 0.03 %ID/g.

**Q.** And the tissue uptake at 5 min ([2]; mouse, heart, 10 ug, total radioactivity, CD1 mice, iv, 5 min, 10 μg, read-out: injected activity in Heart)?
**A.** Its tissue uptake at 5 min is 1.1 ± 0.4 %ID/g.

**Q.** What about the tissue uptake at 1 h ([2]; mouse, heart, 10 ug, total radioactivity, CD1 mice, iv, 1 hour, 10 μg, read-out: injected activity in Heart) of the same molecule?
**A.** The tissue uptake at 1 h was 0.39 ± 0.02 %ID/g.

**Q.** What about the percent of injected dose excreted at 5 min ([2]; mouse, in vivo, 10 ug, total radioactivity, CD1 mice, iv, 5 min, 10 μg, read-out: Excretion) of the same molecule?
**A.** Its percent of injected dose excreted at 5 min is 17.1 ± 7.9 %ID.

**Q.** And the percent of injected dose excreted at 1 h ([2]; mouse, in vivo, 10 ug, total radioactivity, CD1 mice, iv, 1 hour, 10 μg, read-out: Excretion)?
**A.** Its percent of injected dose excreted at 1 h is 32.7 ± 0.2 %ID.

**Q.** And the tissue uptake at 5 min ([2]; mouse, intestine, 10 ug, total radioactivity, CD1 mice, iv, 5 min, 10 μg, read-out: injected activity in Intestine)?
**A.** Its tissue uptake at 5 min is 3.8 ± 2.3 %ID/g.

**Q.** What about the tissue uptake at 1 h ([2]; mouse, intestine, 10 ug, total radioactivity, CD1 mice, iv, 1 hour, 10 μg, read-out: injected activity in Intestine) of the same molecule?
**A.** Its tissue uptake at 1 h is 13 ± 2 %ID/g.

**Q.** And the tissue uptake at 5 min ([2]; mouse, kidney, 10 ug, total radioactivity, CD1 mice, iv, 5 min, 10 μg, read-out: injected activity in Kidney)?
**A.** The tissue uptake at 5 min was 14.6 ± 8.2 %ID/g.

**Q.** What about the tissue uptake at 1 h ([2]; mouse, kidney, 10 ug, total radioactivity, CD1 mice, iv, 1 hour, 10 μg, read-out: injected activity in Kidney) of the same molecule?
**A.** Its tissue uptake at 1 h is 1.6 ± 0.3 %ID/g.

**Q.** And the tissue uptake at 5 min ([2]; mouse, liver, 10 ug, total radioactivity, CD1 mice, iv, 5 min, 10 μg, read-out: injected activity in Liver)?
**A.** Its tissue uptake at 5 min is 7 ± 1.1 %ID/g.

**Q.** And the tissue uptake at 1 h ([2]; mouse, liver, 10 ug, total radioactivity, CD1 mice, iv, 1 hour, 10 μg, read-out: injected activity in Liver)?
**A.** Its tissue uptake at 1 h is 2.4 ± 1 %ID/g.

**Q.** What about the tissue uptake at 5 min ([2]; mouse, lung, 10 ug, total radioactivity, CD1 mice, iv, 5 min, 10 μg, read-out: injected activity in Lung) of the same molecule?
**A.** Its tissue uptake at 5 min is 2.6 ± 0.5 %ID/g.

**Q.** What about the tissue uptake at 1 h ([2]; mouse, lung, 10 ug, total radioactivity, CD1 mice, iv, 1 hour, 10 μg, read-out: injected activity in Lung) of the same molecule?
**A.** Its tissue uptake at 1 h is 1.4 ± 0.3 %ID/g.

**Q.** What about the tissue uptake at 5 min ([2]; mouse, muscle, 10 ug, total radioactivity, CD1 mice, iv, 5 min, 10 μg, read-out: injected activity in Muscle) of the same molecule?
**A.** Its tissue uptake at 5 min is 0.6 ± 0.2 %ID/g.

**Q.** And the tissue uptake at 1 h ([2]; mouse, muscle, 10 ug, total radioactivity, CD1 mice, iv, 1 hour, 10 μg, read-out: injected activity in Muscle)?
**A.** The tissue uptake at 1 h was 0.2 %ID/g.

**Q.** What about the tissue uptake at 5 min ([2]; mouse, pancreas, 10 ug, total radioactivity, CD1 mice, iv, 5 min, 10 μg, read-out: injected activity in Pancreas) of the same molecule?
**A.** Its tissue uptake at 5 min is 0.8 ± 0.2 %ID/g.

**Q.** What about the tissue uptake at 1 h ([2]; mouse, pancreas, 10 ug, total radioactivity, CD1 mice, iv, 1 hour, 10 μg, read-out: injected activity in Pancreas) of the same molecule?
**A.** Its tissue uptake at 1 h is 0.41 ± 0.01 %ID/g.

**Q.** What about the tissue uptake at 5 min ([2]; mouse, spleen, 10 ug, total radioactivity, CD1 mice, iv, 5 min, 10 μg, read-out: injected activity in Spleen) of the same molecule?
**A.** Its tissue uptake at 5 min is 0.7 ± 0.2 %ID/g.

**Q.** What about the tissue uptake at 1 h ([2]; mouse, spleen, 10 ug, total radioactivity, CD1 mice, iv, 1 hour, 10 μg, read-out: injected activity in Spleen) of the same molecule?
**A.** The tissue uptake at 1 h was 0.22 ± 0.01 %ID/g.

**Q.** And the tissue uptake at 5 min ([2]; mouse, stomach, 10 ug, total radioactivity, CD1 mice, iv, 5 min, 10 μg, read-out: injected activity in Stomach)?
**A.** The tissue uptake at 5 min was 0.7 ± 0.4 %ID/g.

**Q.** And the tissue uptake at 1 h ([2]; mouse, stomach, 10 ug, total radioactivity, CD1 mice, iv, 1 hour, 10 μg, read-out: injected activity in Stomach)?
**A.** The tissue uptake at 1 h was 0.31 ± 0.08 %ID/g.
